According to US4318925A (priority 1977, dated 1982):
Counter-ions that a name gives are not always drawn. Like-named read-outs stand apart in the source and are kept apart here.

Legend:
in vitro = conditions: human, kb cells
Influenza AoPR/8 = assay type: in vivo, ddY male mice; conditions: subcutaneous, from 3 hours pre to 150 hours post infection, LLS 7 days after infection, Control (0 mg/kg) 4.8
influenza viruses = conditions: British Pat. No. 1,063,366; SCIENCE, Vol. 144, 862, (1964); cited from earlier work
Newcastle diseases virus = conditions: Koji Aigami et al., J. of Medicinal Chemistry, Vol. 19, 536 (1976); cited from earlier work

SMILES | MCC at 72 h (in vitro) | Lung Lesion Score (Influenza AoPR/8; 15 mg/kg) | also measured
CCCCCOCC(=O)NC12CCCC3CC(CCC31)C2 (centres unmarked) [N-[3-(4-homoisotwistyl)]-2-pentyloxyacetamide] | 5 µg/mL |  | 
CN(C)CCOCC(=O)N(C)C12CCCC3CC(CCC31)C2 (centres unmarked) [N-methyl, N-[3-(4-homoisotwistyl)]-2-(2-dimethylaminoethoxy) acetamide hydrochloride] |  | 4.50 | 
NC12CC3CC(CC(C3)C1)C2 [1-adamantanamine] |  |  | antiviral activity against influenza viruses (influenza viruses): show antiviral against influenza viruses
O=C(COc1ccccc1)NC12CCCC3CC(CCC31)C2 (centres unmarked) [N-[3-(4-homoisotwistyl)]-2-phenoxyacetamide] |  | 4.35 | 
NC12CC3CC(CC(C3)C1)C2 [Amantadine hydrochloride, reference compound] | > 50 µg/mL |  | Lung Lesion Score (Influenza AoPR/8; 10 mg/kg): 4.3
CN(C)CCOCC(=O)NC12CCCC3CC(CCC31)C2 (centres unmarked) [N-[3-(4-homoisotwistyl)]-2-(2-dimethylaminoethoxy)-acetamide hydrochloride] | 250 µg/mL | 4.33 | 
CCCCCCCCCCCOCC(=O)NC12CCCC3CC(CCC31)C2 (centres unmarked) [N-[3-(4-homoisotwistyl)]-2-undecyloxyacetamide] | 10 µg/mL |  | 
CCOCC(=O)NC12CCCC3CC(CCC31)C2 (centres unmarked) [N-[3-(4-homoisotwistyl)]-2-ethoxyacetamide] | 25 µg/mL |  | 
NC12CCCC3CC(CCC31)C2 (centres unmarked) [3-amino-4-homoisotwistane hydrochloride] |  |  | antiviral activity against Newcastle diseases virus (Newcastle diseases virus): have antiviral activity against Newcastle diseases virus
